We go through 26 molecules from ChEMBL document CHEMBL1938371, “Discovery of AZD2932, a new Quinazoline Ether Inhibitor with high affinity for VEGFR-2 and PDGFR tyrosine kinases” (Bioorg Med Chem Lett, 2012).

Active and inactive are the calls of the source. The calls are words filed in the database; no cut-off is given here.

Data set [1] can be described thus: Chemical stability of the compound at pH 1. The data set is classed as physicochemical. The settings on record: buffer.
Data set [2] concerns the target T1, Receptor-type tyrosine-protein kinase FLT3 (Homo sapiens, UniProt P36888).
T1 sequence (P36888 whole entry): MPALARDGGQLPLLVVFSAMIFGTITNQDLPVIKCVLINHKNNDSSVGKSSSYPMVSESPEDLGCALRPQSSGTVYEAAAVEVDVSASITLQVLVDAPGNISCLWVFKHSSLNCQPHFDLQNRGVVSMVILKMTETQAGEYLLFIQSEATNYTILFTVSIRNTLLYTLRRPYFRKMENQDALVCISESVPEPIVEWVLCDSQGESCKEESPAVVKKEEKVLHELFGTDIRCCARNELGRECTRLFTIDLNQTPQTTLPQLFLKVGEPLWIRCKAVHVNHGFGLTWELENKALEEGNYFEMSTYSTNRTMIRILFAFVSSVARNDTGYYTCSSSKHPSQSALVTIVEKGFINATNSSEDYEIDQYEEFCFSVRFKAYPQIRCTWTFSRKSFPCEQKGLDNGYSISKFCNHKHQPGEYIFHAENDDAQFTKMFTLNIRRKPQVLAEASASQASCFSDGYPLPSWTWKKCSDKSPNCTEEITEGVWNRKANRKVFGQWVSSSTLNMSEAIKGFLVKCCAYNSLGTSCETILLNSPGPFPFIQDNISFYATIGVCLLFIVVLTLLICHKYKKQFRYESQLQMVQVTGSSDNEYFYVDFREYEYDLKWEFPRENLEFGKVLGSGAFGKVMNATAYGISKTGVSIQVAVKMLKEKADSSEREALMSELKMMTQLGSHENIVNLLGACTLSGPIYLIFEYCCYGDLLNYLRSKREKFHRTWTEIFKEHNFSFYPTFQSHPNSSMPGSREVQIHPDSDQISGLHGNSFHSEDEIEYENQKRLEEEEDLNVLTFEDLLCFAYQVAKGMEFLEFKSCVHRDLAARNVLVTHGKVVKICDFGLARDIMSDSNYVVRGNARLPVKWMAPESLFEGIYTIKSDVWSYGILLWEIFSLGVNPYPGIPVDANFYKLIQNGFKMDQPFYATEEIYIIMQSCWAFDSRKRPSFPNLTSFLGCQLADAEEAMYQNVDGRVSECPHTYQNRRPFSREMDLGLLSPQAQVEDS
In words: Inhibition of FLT3 phosphorylation by cell based assay.

In data set [3] the target is Macrophage colony-stimulating factor 1 receptor (Homo sapiens, UniProt P07333). In words: Inhibition of CSF1R phosphorylation by cell based assay.
Chain of Macrophage colony-stimulating factor 1 receptor (P07333 whole entry): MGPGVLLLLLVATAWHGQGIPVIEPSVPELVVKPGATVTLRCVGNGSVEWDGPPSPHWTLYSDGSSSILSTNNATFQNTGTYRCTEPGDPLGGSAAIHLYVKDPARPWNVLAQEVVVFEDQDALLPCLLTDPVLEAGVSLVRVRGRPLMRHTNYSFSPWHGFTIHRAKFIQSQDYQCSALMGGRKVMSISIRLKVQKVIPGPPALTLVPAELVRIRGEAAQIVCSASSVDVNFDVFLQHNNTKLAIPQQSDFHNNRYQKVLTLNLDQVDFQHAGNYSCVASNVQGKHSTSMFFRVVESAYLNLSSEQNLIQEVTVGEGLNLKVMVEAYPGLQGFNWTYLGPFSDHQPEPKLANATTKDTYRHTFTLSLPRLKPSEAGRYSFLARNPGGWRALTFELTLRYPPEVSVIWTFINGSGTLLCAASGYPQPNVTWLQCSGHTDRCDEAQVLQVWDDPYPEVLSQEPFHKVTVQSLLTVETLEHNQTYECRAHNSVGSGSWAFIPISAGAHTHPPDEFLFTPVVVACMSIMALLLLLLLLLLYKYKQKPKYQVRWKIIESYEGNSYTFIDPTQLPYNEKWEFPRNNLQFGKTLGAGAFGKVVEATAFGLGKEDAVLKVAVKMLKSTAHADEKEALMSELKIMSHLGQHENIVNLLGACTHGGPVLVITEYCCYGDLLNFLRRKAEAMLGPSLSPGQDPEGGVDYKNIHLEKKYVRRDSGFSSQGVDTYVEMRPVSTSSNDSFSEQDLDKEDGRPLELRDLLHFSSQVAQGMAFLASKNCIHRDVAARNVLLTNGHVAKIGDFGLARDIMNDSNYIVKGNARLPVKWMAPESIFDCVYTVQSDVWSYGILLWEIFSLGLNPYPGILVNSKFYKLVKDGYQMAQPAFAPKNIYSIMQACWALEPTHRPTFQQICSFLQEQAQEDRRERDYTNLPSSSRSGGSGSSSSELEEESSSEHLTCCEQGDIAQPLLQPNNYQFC
Data set [4] is described as follows: Oral bioavailability in rat. The data set is classed as ADME, organism-based. The settings on record: in vivo.
Data set [5] concerns the target Vascular endothelial growth factor receptor 2 (Homo sapiens) (UniProt P35968). Kind of data set: Inhibition of VEGFR2 phosphorylation by cell based assay.
For data set [6], the target named is Platelet-derived growth factor receptor beta (Homo sapiens, UniProt P09619). Kind of data set: Inhibition of PDGFRbeta phosphorylation by cell based assay.
Chain of Platelet-derived growth factor receptor beta (P09619 whole entry): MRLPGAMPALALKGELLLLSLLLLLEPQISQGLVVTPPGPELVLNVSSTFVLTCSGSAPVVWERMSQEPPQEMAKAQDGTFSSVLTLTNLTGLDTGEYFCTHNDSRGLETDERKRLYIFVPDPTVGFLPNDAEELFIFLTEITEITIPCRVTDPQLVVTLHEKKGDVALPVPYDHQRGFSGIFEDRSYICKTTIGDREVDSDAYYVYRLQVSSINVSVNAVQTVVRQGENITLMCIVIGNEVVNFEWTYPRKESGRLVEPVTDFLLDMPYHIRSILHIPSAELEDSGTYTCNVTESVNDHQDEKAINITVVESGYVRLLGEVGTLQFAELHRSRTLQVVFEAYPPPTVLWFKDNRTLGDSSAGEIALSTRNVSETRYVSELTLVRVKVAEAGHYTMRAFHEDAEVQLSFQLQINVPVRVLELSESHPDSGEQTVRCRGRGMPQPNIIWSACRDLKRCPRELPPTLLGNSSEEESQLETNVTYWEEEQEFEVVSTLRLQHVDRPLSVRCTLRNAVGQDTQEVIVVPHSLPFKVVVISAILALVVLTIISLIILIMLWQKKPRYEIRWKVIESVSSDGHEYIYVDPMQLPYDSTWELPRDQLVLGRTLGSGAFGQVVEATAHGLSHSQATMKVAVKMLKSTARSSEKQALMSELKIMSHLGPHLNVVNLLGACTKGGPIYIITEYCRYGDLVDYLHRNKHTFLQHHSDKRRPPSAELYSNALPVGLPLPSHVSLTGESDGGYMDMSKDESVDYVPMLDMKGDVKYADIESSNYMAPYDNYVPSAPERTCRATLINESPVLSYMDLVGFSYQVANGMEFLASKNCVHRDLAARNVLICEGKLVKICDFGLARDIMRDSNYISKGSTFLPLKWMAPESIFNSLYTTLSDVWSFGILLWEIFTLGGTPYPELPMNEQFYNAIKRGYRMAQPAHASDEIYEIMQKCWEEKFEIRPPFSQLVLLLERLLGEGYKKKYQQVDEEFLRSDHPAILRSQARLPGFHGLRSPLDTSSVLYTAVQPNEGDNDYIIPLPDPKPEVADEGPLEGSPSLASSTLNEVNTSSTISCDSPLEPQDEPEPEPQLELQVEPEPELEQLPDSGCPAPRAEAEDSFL
For data set [7], the target named is Platelet-derived growth factor receptor alpha (Homo sapiens) (UniProt P16234). Kind of data set: Inhibition of PDGFRalpha phosphorylation by cell based assay.
Chain of Platelet-derived growth factor receptor alpha (Homo sapiens) (P16234 whole entry): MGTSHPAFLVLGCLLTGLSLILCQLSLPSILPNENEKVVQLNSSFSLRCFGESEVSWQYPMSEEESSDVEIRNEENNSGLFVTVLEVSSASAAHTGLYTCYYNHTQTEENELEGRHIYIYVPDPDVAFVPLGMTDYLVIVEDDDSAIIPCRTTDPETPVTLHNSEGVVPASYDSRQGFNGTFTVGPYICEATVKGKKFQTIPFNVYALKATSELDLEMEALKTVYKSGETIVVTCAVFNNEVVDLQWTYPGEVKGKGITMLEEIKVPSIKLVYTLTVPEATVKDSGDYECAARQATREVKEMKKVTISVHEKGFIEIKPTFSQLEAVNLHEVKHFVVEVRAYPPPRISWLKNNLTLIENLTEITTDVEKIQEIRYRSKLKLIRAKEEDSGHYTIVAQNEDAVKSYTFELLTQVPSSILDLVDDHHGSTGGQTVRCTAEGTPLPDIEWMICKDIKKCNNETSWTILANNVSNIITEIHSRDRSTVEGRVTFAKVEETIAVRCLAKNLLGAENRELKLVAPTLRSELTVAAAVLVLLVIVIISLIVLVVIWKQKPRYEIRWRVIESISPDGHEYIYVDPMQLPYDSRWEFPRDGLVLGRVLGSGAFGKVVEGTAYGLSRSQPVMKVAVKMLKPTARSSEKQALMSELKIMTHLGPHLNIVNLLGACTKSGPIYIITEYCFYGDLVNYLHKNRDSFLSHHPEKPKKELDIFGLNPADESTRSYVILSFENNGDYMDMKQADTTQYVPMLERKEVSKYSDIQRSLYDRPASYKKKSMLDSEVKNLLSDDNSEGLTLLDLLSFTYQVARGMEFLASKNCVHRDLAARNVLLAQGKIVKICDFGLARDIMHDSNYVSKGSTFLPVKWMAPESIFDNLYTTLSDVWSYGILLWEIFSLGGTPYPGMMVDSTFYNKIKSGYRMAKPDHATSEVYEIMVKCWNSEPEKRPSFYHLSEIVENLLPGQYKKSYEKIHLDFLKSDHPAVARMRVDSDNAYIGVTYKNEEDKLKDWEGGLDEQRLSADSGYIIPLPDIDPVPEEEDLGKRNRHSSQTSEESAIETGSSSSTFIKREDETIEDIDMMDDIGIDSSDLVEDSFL

In data set [1], `COc1cc2ncnc(Oc3cnn(CC(=O)Nc4ccc(N(C)C)cn4)c3)c2cc1OC` yielded a Stability of 0.1 days. Besides, the IC50 in data set [2] is 3 nM; in data set [3], 20 nM; in data set [5], 39 nM; in data set [6] it was 3 nM. This molecule displayed a bioavailability in data set [4] of under 20%. For the same molecule, the inhibition entry in data set [7] is “Active”.

`COc1cccc(NC(=O)Cn2cc(Oc3ccnc4cc(OC)c(OC)cc34)cn2)c1`: in data set [1], the Stability turned out to be 0.1 days. Also, the IC50 worked out at 20 nM in data set [2], 40 nM in data set [3], 57 nM in data set [5] and 2 nM in data set [6]. The molecule also yielded a bioavailability in data set [4] of under 20%. In addition, in data set [7], the inhibition entry is “Active”.

In the case of `COc1cccc(NC(=O)NCc2ccc(Oc3ncnc4cc(OC)c(OC)cc34)cc2)c1`, the IC50 in data set [2] was 8 nM; in data set [3], over 1000 nM; in data set [5], 177 nM; in data set [6], 9 nM. Further, in data set [7], the inhibition result was “Active”.

On to `COc1cccc(NC(=O)Cc2ccc(Oc3ncnc4cc(OC)c(OC)cc34)cc2)c1`, for which the IC50 was found to be 7 nM in data set [2], 300 nM in data set [3], 8 nM in data set [5] and 0.9 nM in data set [6]. Further, in data set [7], the inhibition entry is “Active”.

As for `COc1cccc(NC(=O)Cn2cc(Oc3ncnc4cc(OC)cc(OC)c34)cn2)c1`, in data set [1], the Stability was determined as 0.1 days. Further, the IC50 was found to be 5 nM in data set [2], 100 nM in data set [3], 30 nM in data set [5] and 2 nM in data set [6]. In data set [4], the bioavailability was under 20%. Also, the inhibition result in data set [7] was “Active”.

`COCCOc1cc2ncnc(Oc3cnn(CC(=O)Nc4cccc(OC)c4)c3)c2cc1OC` showed a Stability in data set [1] of 0.1 days. Also, the IC50 amounted to 2 nM in data set [2], 8 nM in data set [3], 0.2 nM in data set [5] and 0.3 nM in data set [6]. This molecule also gave a bioavailability in data set [4] of under 20%. Further, in data set [7], the inhibition result was “Active”.

For `COc1cccc(NC(=O)Cn2cc(Oc3ncnc4cc(OC)c(OC)cc34)cn2)c1`, the Stability in data set [1] was found to be 0.1 days. For the same molecule, the IC50 in data set [2] was 2 nM; in data set [3], 10 nM; in data set [5], 0.4 nM; in data set [6], 0.8 nM. The bioavailability in data set [4] was under 20%. The inhibition result in data set [7] is “Active”.

In the case of `CCn1cc(NC(=O)Cn2cc(Oc3ncnc4cc(OC)c(OC)cc34)cn2)cn1`, the Stability in data set [1] was found to be 0.1 days. The IC50 in data set [2] was 4 nM; in data set [3], 200 nM; in data set [5], 35 nM; in data set [6], 4 nM. In addition, the bioavailability in data set [4] was under 20%. Further, the inhibition entry in data set [7] was “Active”.

As for `CCc1cc(NC(=O)Cc2ccc(Oc3ncnc4cc(OC)c(OC)cc34)cc2)n[nH]1`, the IC50 in data set [2] is 5 nM; in data set [3], over 600 nM; in data set [5] it was under 5 nM; in data set [6] it was 4 nM. Further, the inhibition result in data set [7] was “Active”.

As to `COc1cc2ncnc(Oc3ccc(CC(=O)Nc4cnn(C)c4)cc3)c2cc1OC`, the IC50 in data set [2] is 80 nM; in data set [3], over 1000 nM; in data set [5], 667 nM; in data set [6] it was 40 nM. In addition, the inhibition result in data set [7] was “Active”.

In the case of `COc1cccc(CC(=O)Nc2ccc(Oc3ncnc4cc(OC)c(OC)cc34)cc2)c1`, the IC50 came out at 10 nM in data set [2], 30 nM in data set [3], 209 nM in data set [5] and 4 nM in data set [6]. In addition, the inhibition entry in data set [7] was “Active”.

Consider `COc1cc2ncnc(Oc3ccc(CC(=O)Nc4ccc(N(C)C)cn4)cc3)c2cc1OC`, for which the IC50 was found to be 9 nM in data set [2], 600 nM in data set [3], 22 nM in data set [5] and 5 nM in data set [6]. Besides, the inhibition entry in data set [7] was “Active”.

With `COc1cccc(COc2ccc(Oc3ncnc4cc(OC)c(OC)cc34)cc2)c1`, the IC50 in data set [2] was 20 nM; in data set [3] it was 300 nM; in data set [5], 128 nM; in data set [6], 20 nM. Besides, in data set [7], the inhibition result is “Active”.

On to `COc1cccc(NC(=O)Cn2cc(Oc3ccnc4cc(OC)c(C#N)cc34)cn2)c1`, for which, in data set [1], the Stability was 0.1 days. Also, the IC50 in data set [2] was found to be 40 nM; in data set [3], 50 nM; in data set [5], 282 nM; in data set [6], 2 nM. The molecule further yielded a bioavailability in data set [4] of under 20%. In data set [7], the inhibition result is “Active”.

Consider `COc1cccc(NC(=O)Cc2cccc(Oc3ncnc4cc(OC)c(OC)cc34)c2)c1`, for which the 50% inhibitory concentration (IC50) was over 1000 nM in data set [2], over 1000 nM in data set [3], 1010 nM in data set [5] and 300 nM in data set [6]. The inhibition entry in data set [7] was “Active”.

As to `CCn1ccc(NC(=O)Cc2ccc(Oc3ncnc4cc(OC)c(OC)cc34)cc2)n1`, the IC50 in data set [2] was 20 nM; in data set [3], over 1000 nM; in data set [5] it was 172 nM; in data set [6], 10 nM. Also, the inhibition entry in data set [7] was “Active”.

Turning to `COc1cc2ncnc(Oc3ccc(CC(=O)Nc4cn[nH]c4)cc3)c2cc1OC`, the half-inhibitory concentration (IC50) in data set [2] was over 800 nM; in data set [3] it was over 1000 nM; in data set [5], over 10000 nM; in data set [6], over 2000 nM. Further, the inhibition entry in data set [7] is “Active”.

With `COc1cccc(S(=O)(=O)NCc2ccc(Oc3ncnc4cc(OC)c(OC)cc34)cc2)c1`, the IC50 in data set [2] is over 1000 nM; in data set [3], over 1000 nM; in data set [5], over 10000 nM; in data set [6], over 1000 nM. For the same molecule, the inhibition result in data set [7] is “Active”.

Consider `COc1cccc(NC(=O)Cc2ccc(Nc3ncnc4cc(OC)c(OC)cc34)cc2)c1`, for which the IC50 in data set [2] was over 60 nM; in data set [3] it was over 1000 nM; in data set [5], 175 nM; in data set [6], 10 nM. The inhibition result in data set [7] was “Active”.

`COCCOc1cc2c(Oc3cnn(CC(=O)Nc4cccc(OC)c4)c3)ncnc2cc1OC` yielded a Stability in data set [1] of 0.1 days. Besides, the IC50 in data set [2] is 3 nM; in data set [3], 90 nM; in data set [5], under 5 nM; in data set [6], 2 nM. Besides, the bioavailability in data set [4] is under 20%. The inhibition result in data set [7] is “Active”.

`COc1cccc(NC(=O)Cn2cc(Oc3ncnc4cc(OCCN5CCCC5)c(OC)cc34)cn2)c1` registered a Stability in data set [1] of 0.1 days. The IC50 in data set [2] worked out at 5 nM; in data set [3], 30 nM; in data set [5], 7 nM; in data set [6], 1 nM. Also, in data set [4], the bioavailability was under 20%. For the same molecule, the inhibition result in data set [7] was “Active”.

With `COc1cccc(CNC(=O)c2ccc(Oc3ncnc4cc(OC)c(OC)cc34)cc2)c1`, the IC50 in data set [2] was over 400 nM; in data set [3] it was over 1000 nM; in data set [5] it was 3060 nM; in data set [6], 700 nM. Also, the inhibition result in data set [7] was “Active”.

Regarding `COc1cccc(C(=O)NCc2ccc(Oc3ncnc4cc(OC)c(OC)cc34)cc2)c1`, the IC50 was over 1000 nM in data set [2], over 1000 nM in data set [3], 6140 nM in data set [5] and 300 nM in data set [6]. Further, the inhibition entry in data set [7] was “Active”.

In turn, `COc1cc2ncnc(Nc3cnn(CC(=O)Nc4ccc(N(C)C)cn4)c3)c2cc1OC` registered a Stability in data set [1] of 0.1 days. Further, the IC50 is 10 nM in data set [2], over 1000 nM in data set [3], 453 nM in data set [5] and over 200 nM in data set [6]. This molecule also yielded a bioavailability in data set [4] of under 20%. The inhibition entry in data set [7] is “Active”.

In the case of `CCn1cc(NC(=O)Cc2ccc(Oc3ncnc4cc(OC)c(OC)cc34)cc2)cn1`, the IC50 was 10 nM in data set [2], over 800 nM in data set [3], 29 nM in data set [5] and 3 nM in data set [6]. Moreover, the inhibition entry in data set [7] was “Active”.

Regarding `CCn1cc(NC(=O)Cc2ccc(Oc3ccnc4cc(OC)c(OC)cc34)cc2)cn1`, the IC50 stood at 4 nM in data set [2], 40 nM in data set [3], 12 nM in data set [5] and 0.4 nM in data set [6]. Moreover, in data set [7], the inhibition entry was “Active”.
